Data taken from publication PMC9356275, “A quantitative high-throughput screen identifies compounds that lower expression of the SCA2-and ALS-associated gene ATXN2” (The Journal of Biological Chemistry, 2022).
pIC50: −log10 of the molar value. Read-outs that look alike come from different tables or passages of the source.

How the values were obtained:
S2, H2 or SC cells = experiment: Secondary assays: multiplexed cell viability (CellTiter-Fluor)
Method: (§1) The values for H2 and S2 were used as replicates to calculate IC50s and to assess cell viability.
(§2) Compounds were plated at 2× concentrations in phenol red–free DMEM in 25 μl in 384-well plates with each compound dose plated in triplicate. An equal volume of S2, H2, or SC cells (24,000 cells/well) suspended in phenol red–free DMEM with 10% fetal bovine serum and 1× penicillin/streptomycin were added. Cells were grown 24 h and then assayed first by using the CellTiter-Fluor reagent (20 μl) followed by the addition of Bright-Glo (65 μl) luciferase assay, using a multimode plate reader (Beckman; DT880). Values were reported as the mean ± SD with n = 3. IC50s were determined by the Hill coefficient method using an online tool (https://www.aatbio.com/tools/ic50-calculator).

CMV-luc = experiment: Secondary assays: CMV-luc in SC cells, Bright-Glo; assay type: cell-based, human; conditions: minimum CMV-luc signal in SC cells over 12 doses; summary data
Method: as §2

ATXN2-luc [1] = experiment: Secondary assays: ATXN2-luc in S2 and H2 cells, 12 doses, Bright-Glo; assay type: cell-based, human; conditions: summary data; for pIC50: ATXN2-luc luciferase assays in H2 and S2 cells, 12 doses plus a zero dose, read-out: Mean IC50; for min ATXN2-luc (%): minimum ATXN2-luc signal over 12 doses, H2 and S2 cells
Method: as §1, §2

ATXN2-luc [2] = experiment: MSSR hit retest: ATXN2-luc luciferase assay, average of H2 and S1 cells (1 and 10 uM); assay type: cell-based, human; set-up: H2&S1 ave luc 1uM / H2&S1 ave luc 10uM: scale not given here; conditions: for H2&S1 ave luc 10uM: head line r4 20 uM compound; for activity at 1 µM: read-out: H2&S1 ave luc 1uM
Text: (§3) Supplement mmc2.xlsx, sheet "43 annotated compounds"

ATXN2-luc [3] = experiment: MSSR hit retest / multiconcentration testing: ATXN2-luc luciferase assay in H2 cells (1 and 10 μM); assay type: cell-based, human; conditions: for H2&S1 ave luc 1uM: 1 uM compound; for H2&S1 ave luc 10uM: 10 uM compound
ATXN2-luc [4] = experiment: MSSR pilot screen: ATXN2-luc luciferase assay (Bright-Glo) in H2 cells, single 10 μM dose; assay type: cell-based, human; conditions: for SD from mean (ATXN2-luc, Z-score): H2 cells, single dose (title: 10 μM compound), overnight; for ¦Score/1SD¦: absolute score divided by 1SD (0.891 or 0.9)
H2 and S1 cells = experiment: Paired MTT viability assay, average of H2 and S1 cells (1 and 10 uM); assay type: cell-based, human; set-up: H2&S1 ave MTT 1uM / H2&S1 ave MTT 10uM: unit not given here; conditions: for viability at 1 µM / viability at 10 µM: Homo sapiens
Text: as §3

[5] = minimum viability, multiplexed CellTiter-Fluor, over 12 doses, summary data
[6] = 1 uM compound, average of H2 and S1 cells
[7] = head line r3 10uM, average of H2 and S1 cells
[8] = luciferase assay, average of H2 and S1 cells (both ATXN2-luc), rescreen from plated libraries
[9] = pilot screen, H2 cells expressing ATXN2-luc, single dose printed as 10 μM compound
[10] = luciferase, average of H2 and S1 cells expressing ATXN2-luc, rescreen
[11] = pilot screen at 10 µM compound, H2 cells expressing ATXN2-luc

Row | SMILES | min SC luc (%) (CMV-luc) | pIC50 (ATXN2-luc [1]) | min ATXN2-luc (%) (ATXN2-luc [1]) | min viability (%) (S2, H2 or SC cells) | H2&S1 ave luc 1uM (ATXN2-luc [2]; [6]) | H2&S1 ave luc 10uM (ATXN2-luc [2]; [7]) | H2&S1 ave luc 1uM (ATXN2-luc [3]; [8]) | SD from mean (ATXN2-luc, Z-score) (ATXN2-luc [4]) [SD] | SD from mean (pilot screen) (ATXN2-luc [4]; pilot screen) [SD] | SD from mean (pilot screen) (ATXN2-luc [4]; [9]) | ¦Score/1SD¦ (ATXN2-luc [4]; pilot screen) | H2&S1 ave MTT 1uM (H2 and S1 cells; 1 uM compound) | H2&S1 ave MTT 10uM (H2 and S1 cells; 10 uM compound) | also measured
1 | Clc1ccc(C[n+]2cc(-c3ccccc3)n3c2CCCCC3)c(Cl)c1.[Br-] [MLS000420216-02] | 72.1585 | 5.09 | 56.4685 | – | – | – | – | – | – | – | – | – | – | min viability (%) (S2, H2 or SC cells; [5]): 84.5162%
2 | CC1(C)CC(=O)c2c(C(F)(F)F)nn(-c3ccc(C(N)=O)c(NC4CCC(OC(=O)CN)CC4)c3)c2C1 (centres unmarked) [NCGC00346640-01, PF 04929113] | 69.7843 | 7.06 | 19.9722 | 87.146 | – | – | – | – | – | – | – | – | – | –
3 | CO[C@H]1[C@@H](O)[C@@H](C)O[C@@H](O[C@H]2CC[C@]3(C)[C@H]4CC[C@]5(C)[C@@H](C6=CC(=O)OC6)CC[C@]5(O)[C@@H]4CC[C@]3(O)C2)[C@@H]1O [EMICYMARIN] | – | – | – | – | 115 | 31 | 115 | -3.080 | -3.080 | -3.080 | 3.42 | 111.923 | 53.425 | H2&S1 ave luc 10uM (ATXN2-luc [3]; [8]): 31
4 | O=C(Nc1cccc(Nc2ncc(Br)c(NCCc3cnc[nH]3)n2)c1)N1CCCC1 [NCGC00346687-01, BX-912] | 100.351 | 5.05 | 54.9395 | 84.397 | – | – | – | – | – | – | – | – | – | –
5 | CCCCCCCCCOc1ccc2[nH]cc(CCN)c2c1 [5-Nonyloxytryptamine] | – | – | – | – | – | – | 111 | -3.607 | -3.607 | -3.607 | 4.01 | – | – | activity at 1 µM (ATXN2-luc [2]; Homo sapiens): 111%; activity (ATXN2-luc [2]; Homo sapiens, read-out: H2&S1 ave luc 10uM): 4.61%; viability at 1 µM (H2 and S1 cells; read-out: H2&S1 ave MTT 1uM, 1 uM compound): 114%; viability at 10 µM (H2 and S1 cells; read-out: H2&S1 ave MTT 10uM, 10 uM compound): 23.7%
6 | COc1c(C)cnc(Cn2cnc3c(Cl)nc(N)nc32)c1C [NCGC00247877-01] | 68.1668 | 6.48 | 17.8512 | 91.8481 | – | – | – | – | – | – | – | – | – | –
7 | CCN(CC)CCCCCCCCOC(=O)c1cc(OC)c(OC)c(OC)c1 [TMB-8] | – | – | – | – | 66 | 53 | – | -5.740 | -5.740 | – | 6.44 | 73.9218 | 52.1193 | H2&S1 ave luc 1uM (ATXN2-luc [3]; [10]): 66; H2&S1 ave luc 10uM (ATXN2-luc [3]; [10]): 53; SD from mean (pilot screen) (ATXN2-luc [4]; [11]): -5.740
8 | CCC(=C/[C@H](C)C/C=C/C(C)=C/[C@@H](C)C(=O)[C@@H](C)[C@H](O)[C@@H](C)C/C(C)=C/C(=O)O)/C=C/[C@@H]1OC(=O)C=C[C@@H]1C [NCGC00162440-02] | 90.0621 | 7.32 | 28.333 | – | – | – | – | – | – | – | – | – | – | min viability (%) (S2, H2 or SC cells; [5]): 65.4242%
9 | CC1=CC(=O)c2ccccc2C1=O [Menadione] | – | – | – | – | – | – | 115 | -3.434 | -3.434 | -3.434 | 3.85 | – | – | activity at 1 µM (ATXN2-luc [2]; Homo sapiens, 1 uM compound, average of H2 and S1 cells): 115%; activity at 10 µM (ATXN2-luc [2]; Homo sapiens, head line r3 10uM, average of H2 and S1 cells, read-out: H2&S1 ave luc 10uM): 35%; viability at 1 µM (H2 and S1 cells; 1 uM compound, read-out: H2&S1 ave MTT 1uM): 153%; viability at 10 µM (H2 and S1 cells; 10 uM compound, read-out: H2&S1 ave MTT 10uM): 103%
10 | CC(C)c1cc(/C=C(\C#N)C(=O)NCCCc2ccccc2)cc(C(C)C)c1O [SU1498] | – | – | – | – | 22 | 15 | – | -4.885 | -4.885 | – | 5.48 | 86.0811 | 61.708 | H2&S1 ave luc 1uM (ATXN2-luc [3]; [10]): 22; H2&S1 ave luc 10uM (ATXN2-luc [3]; [10]): 15; SD from mean (pilot screen) (ATXN2-luc [4]; [11]): -4.885
